The source of these data is PMC8383264, “Structural Characterization of the Reaction and Substrate Specificity Mechanisms of Pathogenic Fungal Acetyl-CoA Synthetases” (ACS Chemical Biology, 2021).

The target in one experiment is T1, S. cerevisiae Acs1 (Saccharomyces cerevisiae, UniProt Q01574).
T1 sequence (Q01574 1-713): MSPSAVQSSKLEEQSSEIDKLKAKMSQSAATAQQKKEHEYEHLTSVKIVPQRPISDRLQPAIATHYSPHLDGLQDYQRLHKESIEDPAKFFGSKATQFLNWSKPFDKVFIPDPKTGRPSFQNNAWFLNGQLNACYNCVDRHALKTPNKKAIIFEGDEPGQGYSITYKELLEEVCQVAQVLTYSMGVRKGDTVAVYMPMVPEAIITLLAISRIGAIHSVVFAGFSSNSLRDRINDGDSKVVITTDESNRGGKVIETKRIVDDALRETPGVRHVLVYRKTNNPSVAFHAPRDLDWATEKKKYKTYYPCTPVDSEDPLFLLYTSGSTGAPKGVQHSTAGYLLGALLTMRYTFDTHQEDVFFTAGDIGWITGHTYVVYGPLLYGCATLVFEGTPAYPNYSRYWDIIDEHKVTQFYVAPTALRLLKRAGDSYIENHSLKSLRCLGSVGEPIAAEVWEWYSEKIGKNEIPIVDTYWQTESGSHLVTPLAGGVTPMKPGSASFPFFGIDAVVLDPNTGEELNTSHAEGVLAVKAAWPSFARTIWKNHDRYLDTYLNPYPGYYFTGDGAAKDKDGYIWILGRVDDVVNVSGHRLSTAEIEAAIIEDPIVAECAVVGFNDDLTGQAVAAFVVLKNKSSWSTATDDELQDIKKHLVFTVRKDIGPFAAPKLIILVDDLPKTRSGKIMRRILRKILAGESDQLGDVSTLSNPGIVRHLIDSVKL
Kind of experiment: Coupled continuous pyrophosphate detection assay (EnzChek) of ACS activity. The conditions noted are these: 37 °C.

Another experiment has as its target T2, A. fumigatus Acs1 (Aspergillus fumigatus, UniProt Q4WQ02).
T2 sequence (Q4WQ02 2-670): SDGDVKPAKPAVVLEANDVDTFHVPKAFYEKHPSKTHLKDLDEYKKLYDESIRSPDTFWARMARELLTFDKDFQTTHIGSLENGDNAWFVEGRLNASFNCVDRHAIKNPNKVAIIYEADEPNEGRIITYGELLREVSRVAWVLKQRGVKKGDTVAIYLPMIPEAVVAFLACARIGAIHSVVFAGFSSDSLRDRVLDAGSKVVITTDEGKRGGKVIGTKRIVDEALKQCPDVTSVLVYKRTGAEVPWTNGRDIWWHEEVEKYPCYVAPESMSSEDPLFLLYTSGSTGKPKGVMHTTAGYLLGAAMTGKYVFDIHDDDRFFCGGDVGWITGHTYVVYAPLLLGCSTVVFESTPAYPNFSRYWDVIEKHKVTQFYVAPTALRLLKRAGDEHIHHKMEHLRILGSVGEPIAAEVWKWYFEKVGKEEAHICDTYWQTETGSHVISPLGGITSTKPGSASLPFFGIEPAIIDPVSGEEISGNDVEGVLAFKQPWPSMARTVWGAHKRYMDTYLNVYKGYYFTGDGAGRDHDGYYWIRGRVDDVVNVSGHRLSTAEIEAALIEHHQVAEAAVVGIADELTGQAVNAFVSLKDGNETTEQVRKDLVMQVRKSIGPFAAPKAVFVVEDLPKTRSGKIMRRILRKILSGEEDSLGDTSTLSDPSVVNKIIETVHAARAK
The description is as above. The conditions noted are these: substrate Km; other substrates in excess; 37 °C; ±S.E.M.

For a further experiment, the target named is C. albicans Acs1 (Candida albicans, UniProt Q8NJN3). The experiment is described as above. The conditions noted are these: 37 °C.
Chain of C. albicans Acs1 (Q8NJN3 2-671 limits assumed): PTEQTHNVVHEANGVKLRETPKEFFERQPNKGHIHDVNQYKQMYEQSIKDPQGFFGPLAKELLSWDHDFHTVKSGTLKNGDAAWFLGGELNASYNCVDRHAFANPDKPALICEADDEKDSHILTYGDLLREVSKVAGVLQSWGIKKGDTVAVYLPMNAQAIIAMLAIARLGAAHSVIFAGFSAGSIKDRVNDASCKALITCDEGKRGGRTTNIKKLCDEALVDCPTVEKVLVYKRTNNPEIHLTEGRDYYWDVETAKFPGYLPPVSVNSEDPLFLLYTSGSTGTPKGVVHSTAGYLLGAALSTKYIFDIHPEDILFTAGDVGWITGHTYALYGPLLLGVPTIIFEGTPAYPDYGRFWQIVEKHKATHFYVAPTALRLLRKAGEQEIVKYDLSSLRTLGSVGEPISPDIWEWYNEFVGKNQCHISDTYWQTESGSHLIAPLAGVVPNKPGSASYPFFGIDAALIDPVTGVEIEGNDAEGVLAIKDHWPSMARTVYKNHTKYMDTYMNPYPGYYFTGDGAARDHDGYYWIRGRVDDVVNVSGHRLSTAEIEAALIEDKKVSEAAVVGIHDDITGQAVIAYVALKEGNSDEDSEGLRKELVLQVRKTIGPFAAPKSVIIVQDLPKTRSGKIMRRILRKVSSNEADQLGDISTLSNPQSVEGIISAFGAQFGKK
The target of another experiment is C. immitis Acs1 (Coccidioides immitis, UniProt J3KJC6). The conditions noted are these: 37 °C.
Chain of C. immitis Acs1 (J3KJC6 2-691 limits assumed): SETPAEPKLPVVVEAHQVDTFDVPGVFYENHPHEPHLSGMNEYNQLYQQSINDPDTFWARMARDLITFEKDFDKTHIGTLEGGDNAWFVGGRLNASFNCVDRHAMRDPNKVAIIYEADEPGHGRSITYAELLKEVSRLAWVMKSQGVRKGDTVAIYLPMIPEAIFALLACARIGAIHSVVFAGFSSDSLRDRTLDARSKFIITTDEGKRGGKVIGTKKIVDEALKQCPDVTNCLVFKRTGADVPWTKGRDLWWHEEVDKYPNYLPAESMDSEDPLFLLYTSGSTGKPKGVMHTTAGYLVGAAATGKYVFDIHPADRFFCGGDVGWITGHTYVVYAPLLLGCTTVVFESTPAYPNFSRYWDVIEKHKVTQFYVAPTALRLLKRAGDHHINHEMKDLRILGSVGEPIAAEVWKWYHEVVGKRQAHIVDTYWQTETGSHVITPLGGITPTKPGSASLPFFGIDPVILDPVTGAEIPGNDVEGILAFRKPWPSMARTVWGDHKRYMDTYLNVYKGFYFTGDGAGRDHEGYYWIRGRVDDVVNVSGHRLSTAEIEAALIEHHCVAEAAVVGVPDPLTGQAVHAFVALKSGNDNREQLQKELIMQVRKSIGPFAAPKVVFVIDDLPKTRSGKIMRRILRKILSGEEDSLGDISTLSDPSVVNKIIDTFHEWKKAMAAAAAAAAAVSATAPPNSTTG
A further experiment addresses C. posadasii Acs1 (Coccidioides posadasii, UniProt C5PGB4). The note with it: 37 °C.
A further experiment concerns the target CnAcs1 (Cryptococcus neoformans, UniProt J9VFT1). Kind of experiment: Coupled continuous pyrophosphate detection assay (EnzChek) of ACS activity.

Chain of CnAcs1 (J9VFT1 entry or part of it): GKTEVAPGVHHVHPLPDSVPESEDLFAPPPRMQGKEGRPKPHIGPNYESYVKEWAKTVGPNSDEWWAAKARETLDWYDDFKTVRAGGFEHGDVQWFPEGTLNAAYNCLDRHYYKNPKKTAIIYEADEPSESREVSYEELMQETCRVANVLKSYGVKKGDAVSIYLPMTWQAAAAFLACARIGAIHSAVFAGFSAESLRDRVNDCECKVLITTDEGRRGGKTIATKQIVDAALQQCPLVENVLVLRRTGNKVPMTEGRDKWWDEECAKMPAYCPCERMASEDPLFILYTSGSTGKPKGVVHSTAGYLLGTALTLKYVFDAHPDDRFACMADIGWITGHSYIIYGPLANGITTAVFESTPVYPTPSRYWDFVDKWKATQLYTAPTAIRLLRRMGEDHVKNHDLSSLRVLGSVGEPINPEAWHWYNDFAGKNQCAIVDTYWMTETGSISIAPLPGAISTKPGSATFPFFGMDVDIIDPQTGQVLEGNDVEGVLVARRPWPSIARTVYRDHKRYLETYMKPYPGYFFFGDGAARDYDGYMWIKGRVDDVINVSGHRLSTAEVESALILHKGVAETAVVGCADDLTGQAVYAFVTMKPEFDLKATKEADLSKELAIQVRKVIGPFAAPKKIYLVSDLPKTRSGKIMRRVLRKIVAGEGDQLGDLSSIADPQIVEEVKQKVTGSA
Chain of C. posadasii Acs1 (C5PGB4 2-691 limits assumed): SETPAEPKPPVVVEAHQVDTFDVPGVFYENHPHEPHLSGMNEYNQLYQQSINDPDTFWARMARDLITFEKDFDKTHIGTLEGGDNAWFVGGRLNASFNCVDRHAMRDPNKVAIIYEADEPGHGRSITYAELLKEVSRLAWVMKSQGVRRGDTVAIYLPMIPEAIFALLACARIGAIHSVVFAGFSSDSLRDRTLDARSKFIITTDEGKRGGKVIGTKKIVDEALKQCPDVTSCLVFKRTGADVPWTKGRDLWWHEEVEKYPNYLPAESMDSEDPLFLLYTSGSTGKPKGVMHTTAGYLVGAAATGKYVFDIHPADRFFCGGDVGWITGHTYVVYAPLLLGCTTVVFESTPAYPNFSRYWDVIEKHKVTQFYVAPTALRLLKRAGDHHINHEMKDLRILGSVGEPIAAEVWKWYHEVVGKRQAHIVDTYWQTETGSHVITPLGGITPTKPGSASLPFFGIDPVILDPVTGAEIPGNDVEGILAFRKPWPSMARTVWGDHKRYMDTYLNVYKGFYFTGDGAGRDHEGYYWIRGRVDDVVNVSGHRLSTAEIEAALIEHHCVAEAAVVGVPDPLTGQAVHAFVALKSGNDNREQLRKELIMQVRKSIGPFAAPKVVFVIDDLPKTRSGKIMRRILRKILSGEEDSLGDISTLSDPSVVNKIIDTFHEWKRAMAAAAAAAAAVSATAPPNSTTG

Turning to `CC(=O)O` [acetate, reference compound], the Km (usually the concentration of substrate that gives half-maximal velocity) at S. cerevisiae Acs1 was found to be 63 ± 13 µM; on A. fumigatus Acs1 it was 18 ± 2 µM; at C. albicans Acs1 it was 79 ± 7 µM; at C. immitis Acs1, 32 ± 5 µM; at C. posadasii Acs1, 27 ± 2 µM; on CnAcs1 (substrate Km, other substrates in excess (ATP 2.5 mM, CoA 1 mM, sodium acetate 0.5 mM), 37 °C, ±S.E.M.), 130 ± 40 µM. In addition, the “utilization as substrate for CnAcs1” value on CnAcs1 (alternative acid substrates) is given as “optimum substrate”. For the same compound, the “calculated binding energy ΔG” value on CnAcs1 (calculated for substrate binding) is -5.5 kcal/mol.
